Like-named read-outs stand apart in the source and are kept apart here.
What was measured:
canine hepatocytes = assay: Metabolism in cultured hepatocytes; format: in vitro ADME; details: Dog hepatocytes
mouse hepatocytes = assay: Metabolism in cultured hepatocytes; format: in vitro ADME
[1] = Brain penetration after IV, IP or PO administration in C57BL/6 mice; format: in vivo, mouse; details: IV 5 mg/kg, IP 10 mg/kg, PO 30 mg/kg
Procedure: To determine the plasma concentrations and pharmacokinetics of the test compounds and test article following a single intravenous (IV) (5 mg/kg), intraperitoneal (IP) (10 mg/kg), or oral dose (PO) (30 mg/kg) administration to C57BL/6 male mice, the following testing [WAS/IS] performed according to the conductions set forth in Table 14.
The test drug is provided once as follows: Each I.V. dosing syringe is weighed loaded and unloaded to at least 4 decimal places. The actual dose (5 mg/kg) administered to the animal is the difference between the loaded and unloaded dosing syringe weights. Each IP dosing syringe is weighed loaded and unloaded to at least 4 decimal places. […]
Following I.V. dose administration, whole brain is collected following cardiocentesis from 4 animals at each of the following time points post-dose: 0.083 hr, 0.5 hr, 2 hr, 6 hr, 12 hr, and 24 hr. […] Whole brain is rinsed in 1×PBS, the tissue weight recorded and snap frozen in pre-labeled tubes using liquid nitrogen. In addition, whole brain from 5 naïve mice is harvested at 24 hr, rinsed in 1×PBS, the tissue weight recorded and snap frozen in pre-labeled tubes using liquid nitrogen.
Samples are analyzed by LC/MS/MS using an Agilent 6410 mass spectrometer coupled with an Agilent 1200 HPLC and a CTC PAL chilled autosampler, all controlled by MassHunter software (Agilent). […]

ROCK2 [2] = target: T1, ROCK2 (Homo sapiens (Human), UniProt O75116); assay: Direct filter-binding radiometric kinase assay, IC50 determination; format: biochemical
[3] = Daily repeat dosing for 2 weeks in normal mice, adverse effects; format: in vivo, mouse
Procedure: In a separate set of experiments, daily repeat dosing experiments were performed to assess adverse effects. […] During the course of the experiment, animals were monitored daily for the appearance of any clinical signs. Hematology, blood chemistry, and histopathology were followed at termination of the experiment.

ROCK2 [4] = target: T1, ROCK2; assay: biochemical
Procedure: The assay is performed by combining the DNA-tagged kinase, immobilized ligand, and a test compound. The ability of the test compound to compete with the immobilized ligand is measured via quantitative PCR of the DNA tag.
The highest concentration tested was 30 μM.

rat hepatocytes = assay: Metabolism in cultured hepatocytes; format: in vitro ADME
Procedure: Test articles were incubated in duplicate rat hepatocytes at 37° C. The reaction contained […] KHB buffer, a pH 7.4. At indicated times (0 min, 15 min, 30 min, 60 min, 120 min), an aliquot was removed from each experimental and control reaction and mixed with an equal volume of ice-cold methanol. Stopped reactions were incubated at least ten minutes at −20° C. The samples were centrifuged to remove precipitated protein, and the supernatants were analyzed by LC-MS/MS.

5-HT2b-receptor = 5-HT2b-receptor (Homo sapiens (Human), UniProt P41595); assay: SAFETYscan off-target panel; format: cell-based; details: 10 μM
Chain of 5-HT2b-receptor (P41595 whole entry): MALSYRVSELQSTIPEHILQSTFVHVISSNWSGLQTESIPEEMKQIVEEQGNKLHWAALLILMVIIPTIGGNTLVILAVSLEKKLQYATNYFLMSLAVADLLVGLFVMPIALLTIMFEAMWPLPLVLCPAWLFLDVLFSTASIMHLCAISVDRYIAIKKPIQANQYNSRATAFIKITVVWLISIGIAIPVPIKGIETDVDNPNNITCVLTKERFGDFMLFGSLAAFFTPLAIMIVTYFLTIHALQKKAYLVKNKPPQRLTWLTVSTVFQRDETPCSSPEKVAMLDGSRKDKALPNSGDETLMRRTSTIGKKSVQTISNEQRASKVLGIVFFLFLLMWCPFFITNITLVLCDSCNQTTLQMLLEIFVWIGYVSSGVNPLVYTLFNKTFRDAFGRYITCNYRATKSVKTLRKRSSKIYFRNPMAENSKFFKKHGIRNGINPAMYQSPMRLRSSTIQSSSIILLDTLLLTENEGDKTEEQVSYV
Procedure: The SAFETYscan™ (DiscoverX) is used for rapid testing of any compound against a panel that includes well-known membrane proteins of importance for drug development such as selected voltage-gated ion channels, G-protein coupled receptors, neurotransmitter transporters and also a selected group of purified cellular enzymes.
Cell lines engineered to express individual transmembrane receptor proteins such as the muscarinic acetylcholine receptor or the dopamine D1 receptor were grown in culture in their standard growth medium until reaching confluence. […] The experiment also contains controls for comparison including known agonists and antagonists of the targeted membrane proteins.
For assays using purified enzymes, an enzyme assay is set up in standard reaction buffer and necessary indicators for activity such as co-factors, buffers and synthetic substrates. […] As positive controls, a binding assay using Rho kinase (ROCK) was included in the panel. Other targets in the panel included G-protein coupled receptors, nuclear hormone receptors, intracellular non-kinase enzymes, ion channels, and neurotransmitter transporters. The specific targets were chosen because of their previous known associations with being the source of problematic off-target effects in cellular or whole animal studies.

hBMVEC monolayer = assay: LPA-treated hBMVECs, endothelial monolayer integrity; format: cell-based, human; details: 1 μM or 10 μM, 20 μM LPA, Example 16, present tense
Procedure: Cells are exposed to each dose for 1 hr, and are then stimulated with 20 μM LPA for either 5 min or 1 hr as described below. All experiments are conducted in triplicate and analyzed by 2 independent assessors blinded to both cell line and treatment.
To examine hBMVECs monolayer integrity, cells are plated on PDL-coated coverslips (Corning) coated with Fibronectin, Collagen-1 and gelatin. 50,000 cells are seeded on each coverslip situated in a 24-well plate. Cells are grown for 3 days in ENDO-growth media (Neuromics) at 37° C./5% CO2. […] The medium is exchanged for ENDO basal media supplemented with 1% HSA, 20 μM of LPA (Santa Cruz Biotech; Santa Cruz, Calif.) and the appropriate amount of compound being tested. After 60 min, cells were fixed with 4% paraformaldehyde and stained for actin-phalloidin (ThermoFisher) and V-Cadherin (Cell Signaling), and then were mounted on microscope slides. Coverslips were imaged by fluorescence microscopy and the cell-free holes in the monolayer are measured using Image J. 3.

AMPK (1 and 2) = assay: KINOMEscan kinome screen; design: species or system human; details: percent of negative control binding; 100% equals no interference
Text: (§1) The KINOMEscan™ screening platform (DiscoverX, Fremont, Calif.) employs a novel active site-directed competition binding assay to quantitatively measure interactions between test compounds and more than 450 human kinases and disease relevant mutant variants. […] Compounds that bind the kinase active site and directly (sterically) or indirectly (allosterically) prevent kinase binding to the immobilized ligand, will reduce the amount of kinase captured on the solid support. […] Screening “hits” are identified by measuring the amount of kinase captured in test versus control samples by using a quantitative, precise and ultra-sensitive qPCR method that detects the associated DNA label.
(§2) Kinase-tagged T7 phage strains were grown in parallel in 24-well blocks in an E. coli host derived from the BL21 strain. E. coli were grown to log-phase and infected with T7 phage from a frozen stock (multiplicity of infection=0.4) and incubated with shaking at 32° C. until lysis (90-150 minutes). The lysates were centrifuged (6,000×g) and filtered (0.2 μm) to remove cell debris. The remaining kinases were produced in HEK-293 cells and subsequently tagged with DNA for qPCR detection (Wein, et al. (2016) Nat. Comm. 7). […] Test compounds were prepared as 40× stocks in 100% DMSO and directly diluted into the assay. All reactions were performed in polypropylene 384-well plates in a final volume of 0.02 ml.

GCN = assay: KINOMEscan kinome screen; design: species or system human; details: percent of negative control binding
Text: as §1, §2

Row | SMILES | metabolism by hepatocytes (canine hepatocytes) | ½ Life (canine hepatocytes) [min] | ½ Life (mouse hepatocytes) [min] | penetration into the brain [1] | IC50 (ROCK2 [2]; 10 μM ATP, Table 2, read-out: Compound IC50 ROCK2) [nM] | IC50 (ROCK2 [2]; Compound IC50 ROCK2 10 μM ATP, CRO Eurofins, 10 μM ATP) [nM] | IC50 (ROCK2 [2]; Compound IC50 ROCK2 10 μM ATP, CRO Reaction Biology, 10 μM ATP) [nM] | IC50 (ROCK2 [2]; Compound IC50 ROCK2 15 μM ATP, Km ATP 15 μM, Table 3) [nM] | IC50 (ROCK2 [2]; Compound IC50 ROCK2 15 μM ATP, Km ATP 15 μM, Table 7) [nM] | IC50 (ROCK2 [2]; read-out: Compound IC50 ROCK2 10 μM ATP, CRO Eurofins, 10 μM ATP) [nM] | findings in daily repeat dosing ([3]; 1 mg/kg and 10 mg/kg once daily I.P. for 2 weeks) | no observed effect level dose ([3]; 2 week repeat dose, I.P.) [mg/kg] | Kd (ROCK2 [4]; ROCK2 KD, average of duplicate determinations, Table 5) [nM] | Kd (ROCK2 [4]; ROCK2 Kd, Table 1) [nM] | ½ Life (rat hepatocytes) [min] | interaction with the 5-HT2b-receptor (5-HT2b-receptor) | monolayer integrity / Rho/ROCK activation after LPA (hBMVEC monolayer) | % Negative Binding, AMPK (1 and 2) (AMPK (1 and 2)) [%] | % Negative Binding, GCN (GCN) [%]
1 | C[C@@H](N)C1CCN(S(=O)(=O)c2cccc3cnccc23)CC1 [BA-1049 (R)] | do not show any detectable metabolism | >480 | 2.2 | able to penetrate the brain by the three routes of administration | 240 | 240 | 340 | 340 | 340 | 240 | no abnormal findings | 10 | 63 | 59 | 60 | potential antagonistic interaction |  |  | 
2 | C[C@@H](N)C1CCN(S(=O)(=O)c2cccc3c(=O)[nH]ccc23)CC1 [1-hydroxy-BA-1049 (R)] |  |  |  |  |  |  |  |  |  |  |  |  |  |  |  |  | prevent Rho/ROCK activation | 100 | 96
